Experimental data published in patent US8076487B2, “Pyridone derivative and herbicide” (Kumiai Chemical Industry Co., Ltd., priority 2006, dated 2011).

Assays:
Assay type in all cases: in vivo
[1] = tested on: Japanese bulrush (Scirpus juncoides Roxb.); assay: Test Example 1: herbicidal effect by soil application to paddy field; settings: paddy field soil application; active ingredient 1,000 g per 1 hectare; wettable powder added dropwise to water surface the day after sowing; examined on the 21st day after application
Procedure, shortened: (§1)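 Plants were sown in flooded (3 cm) paddy soil and evaluated for herbicidal effect 21 days after soil application in a greenhouse.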

[2] = tested on: early watergrass (Echinochloa oryzicola Vasing); assay: as above; settings: paddy field soil application; active ingredient 1,000 g per 1 hectare; wettable powder added dropwise to water surface the day after sowing; examined on the 21st day after application
Procedure, shortened: as §1

[3] = tested on: heartshape false pickerelweed (Monochoria vaginalis (Burm.f.) C.Presl); assay: as above; settings: paddy field soil application; active ingredient 1,000 g per 1 hectare; wettable powder added dropwise to water surface the day after sowing; examined on the 21st day after application
Procedure, shortened: as §1

[4] = tested on: barnyardgrass (Echinochloa crus-galli (L.) P. Beauv. var. crus-galli); assay: Test Example 2: herbicidal effect by soil application to upland field; settings: soil surface spray, upland field soil, 1,000 g active ingredient per hectare, 21st day after application
Procedure, shortened: (§2)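 A standard visual rating of herbicidal effect, made 21 days after treatment, gives the value. Treatment consisted of a uniform spray of water-diluted wettable powder on the soil covering newly sown seeds, equivalent to 1,000 g active ingredient and 1,000 liters per hectare.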

[5] = tested on: green foxtail (Setaria viridis (L.) P. Beauv.); assay: as above; settings: soil surface spray, upland field soil, 1,000 g active ingredient per hectare, 21st day after application
Procedure, shortened: as §2

[6] = tested on: velvetleaf (Abutilon theophrasti medicus); assay: as above; settings: soil surface spray, upland field soil, 1,000 g active ingredient per hectare, 21st day after application
Procedure, shortened: as §2

[7] = tested on: slender amaranth (Amaranthus viridis L.); assay: as above; settings: soil surface spray, upland field soil, 1,000 g active ingredient per hectare, 21st day after application
Procedure, shortened: as §2

[8] = tested on: barnyardgrass (Echinochloa crus-galli (L.) P. Beauv. var. crus-galli); assay: Test Example 3: herbicidal effect by application to upland field (foliage treatment); settings: 14th day after application; for herbicidal effect, Barnyardgrass: foliage treatment, 1,000 g active ingredient per 1 hectare, greenhouse; for herbicidal effect (index), Barnyardgrass: foliage treatment, plants grown two weeks, 1,000 g active ingredient per hectare
Procedure, shortened: (§3)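 Upland foliage test in greenhouse pots of field soil: seedlings sprayed at two weeks post-sowing with 1,000 g/ha active ingredient (wettable powder, 1,000 L water/ha). Scored 14 d after application.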

[9] = tested on: green foxtail (Setaria viridis (L.) P. Beauv.); assay: as above; settings: 14th day after application; for herbicidal effect, Green Foxtail: foliage treatment, 1,000 g active ingredient per 1 hectare, greenhouse; for herbicidal effect (index), Green Foxtail: foliage treatment, plants grown two weeks, 1,000 g active ingredient per hectare
Procedure, shortened: as §3

[10] = tested on: velvetleaf (Abutilon theophrasti medicus); assay: as above; settings: 14th day after application; for herbicidal effect, Velvetleaf: foliage treatment, 1,000 g active ingredient per 1 hectare, greenhouse; for herbicidal effect (index), Velvetleaf: foliage treatment, plants grown two weeks, 1,000 g active ingredient per hectare
Procedure, shortened: as §3

[11] = tested on: slender amaranth (Amaranthus viridis L.); assay: as above; settings: 14th day after application; for herbicidal effect, Slender Amaranth: foliage treatment, 1,000 g active ingredient per 1 hectare, greenhouse; for herbicidal effect (index), Slender Amaranth: foliage treatment, plants grown two weeks, 1,000 g active ingredient per hectare
Procedure, shortened: as §3

Row | Compound | herbicidal effect, Scirpus juncoides Roxb. [1] | herbicidal effect, Echinochloa oryzicola Vasing [2] | herbicidal effect, Monochoria vaginalis (Burm. f.) C. Presl [3] | herbicidal effect (index), Barnyardgrass [4] | herbicidal effect (index), Green Foxtail [5] | herbicidal effect (index), Velvetleaf [6] | herbicidal effect (index), Slender Amaranth [7] | herbicidal effect, Barnyardgrass [8] | herbicidal effect, Green Foxtail [9] | herbicidal effect, Velvetleaf [10] | herbicidal effect, Slender Amaranth [11] | herbicidal effect (index), Barnyardgrass [8] | herbicidal effect (index), Green Foxtail [9] | herbicidal effect (index), Velvetleaf [10] | herbicidal effect (index), Slender Amaranth [11]
1 | CN(C)C=Nn1c(C(F)(F)F)ccc(C(=O)C2=C(O)CCCC2=O)c1=O [I-186] | 5 (90% or more of herbicidal effect and crop phytotoxicity) | 5 (90% or more of herbicidal effect and crop phytotoxicity) | 5 (90% or more of herbicidal effect and crop phytotoxicity) | 5 (90% or more of herbicidal effect and crop phytotoxicity) | 5 (90% or more of herbicidal effect and crop phytotoxicity) | 5 (90% or more of herbicidal effect and crop phytotoxicity) | 5 (90% or more of herbicidal effect and crop phytotoxicity) | 5 (90% or more of herbicidal effect and crop phytotoxicity) | 5 (90% or more of herbicidal effect and crop phytotoxicity) | 5 (90% or more of herbicidal effect and crop phytotoxicity) | 5 (90% or more of herbicidal effect and crop phytotoxicity) |  |  |  | 
2 | O=C1CCCC(O)=C1C(=O)c1ccc(C(F)(F)F)n(CS(=O)(=O)CC2CC2)c1=O [I-58] | 5 (90% or more of herbicidal effect and crop phytotoxicity) | 5 (90% or more of herbicidal effect and crop phytotoxicity) | 5 (90% or more of herbicidal effect and crop phytotoxicity) | 5 (90% or more of herbicidal effect and crop phytotoxicity) | 5 (90% or more of herbicidal effect and crop phytotoxicity) | 5 (90% or more of herbicidal effect and crop phytotoxicity) | 5 (90% or more of herbicidal effect and crop phytotoxicity) |  |  |  |  | 5 (90% or more of herbicidal effect and crop phytotoxicity) | 5 (90% or more of herbicidal effect and crop phytotoxicity) | 5 (90% or more of herbicidal effect and crop phytotoxicity) | 5 (90% or more of herbicidal effect and crop phytotoxicity)
3 | CCc1ccc(C(=O)C2=C(O)CCCC2=O)c(=O)n1-c1ccccc1 [I-230] | 5 (90% or more of herbicidal effect and crop phytotoxicity) | 5 (90% or more of herbicidal effect and crop phytotoxicity) | 5 (90% or more of herbicidal effect and crop phytotoxicity) | 4 (70 to less than 90% of herbicidal effect and crop phytotoxicity) | 5 (90% or more of herbicidal effect and crop phytotoxicity) | 5 (90% or more of herbicidal effect and crop phytotoxicity) | 5 (90% or more of herbicidal effect and crop phytotoxicity) | 5 (90% or more of herbicidal effect and crop phytotoxicity) | 4 (70 to less than 90% of herbicidal effect and crop phytotoxicity) | 5 (90% or more of herbicidal effect and crop phytotoxicity) | 5 (90% or more of herbicidal effect and crop phytotoxicity) |  |  |  | 
4 | Cc1cccc(-n2cccc(C(=O)C3=C(O)CCCC3=O)c2=O)c1 [I-238] | 5 (90% or more of herbicidal effect and crop phytotoxicity) | 5 (90% or more of herbicidal effect and crop phytotoxicity) | 5 (90% or more of herbicidal effect and crop phytotoxicity) | 5 (90% or more of herbicidal effect and crop phytotoxicity) | 4 (70 to less than 90% of herbicidal effect and crop phytotoxicity) | 5 (90% or more of herbicidal effect and crop phytotoxicity) | 5 (90% or more of herbicidal effect and crop phytotoxicity) | 5 (90% or more of herbicidal effect and crop phytotoxicity) | 4 (70 to less than 90% of herbicidal effect and crop phytotoxicity) | 5 (90% or more of herbicidal effect and crop phytotoxicity) | 5 (90% or more of herbicidal effect and crop phytotoxicity) |  |  |  | 
5 | CCCn1c(C(F)(F)F)c(C)cc(C(=O)C2=C(O)CCCC2=O)c1=O [I-215] | 5 (90% or more of herbicidal effect and crop phytotoxicity) | 5 (90% or more of herbicidal effect and crop phytotoxicity) | 5 (90% or more of herbicidal effect and crop phytotoxicity) | 5 (90% or more of herbicidal effect and crop phytotoxicity) | 5 (90% or more of herbicidal effect and crop phytotoxicity) | 5 (90% or more of herbicidal effect and crop phytotoxicity) | 5 (90% or more of herbicidal effect and crop phytotoxicity) | 5 (90% or more of herbicidal effect and crop phytotoxicity) | 5 (90% or more of herbicidal effect and crop phytotoxicity) | 5 (90% or more of herbicidal effect and crop phytotoxicity) | 5 (90% or more of herbicidal effect and crop phytotoxicity) |  |  |  | 
6 | COc1ccc(-n2c(C(F)(F)F)ccc(C(=O)C3=C(O)CCCC3=O)c2=O)cc1F [I-109] | 5 (90% or more of herbicidal effect and crop phytotoxicity) | 4 (70 to less than 90% of herbicidal effect and crop phytotoxicity) | 5 (90% or more of herbicidal effect and crop phytotoxicity) | 5 (90% or more of herbicidal effect and crop phytotoxicity) | 5 (90% or more of herbicidal effect and crop phytotoxicity) | 5 (90% or more of herbicidal effect and crop phytotoxicity) | 5 (90% or more of herbicidal effect and crop phytotoxicity) | 5 (90% or more of herbicidal effect and crop phytotoxicity) | 4 (70 to less than 90% of herbicidal effect and crop phytotoxicity) | 5 (90% or more of herbicidal effect and crop phytotoxicity) | 5 (90% or more of herbicidal effect and crop phytotoxicity) |  |  |  | 
7 | O=C1CCCC(O)=C1C(=O)c1ccc(C(F)(F)F)n(-c2ccc(Br)cc2)c1=O [I-90] | 5 (90% or more of herbicidal effect and crop phytotoxicity) | 5 (90% or more of herbicidal effect and crop phytotoxicity) | 5 (90% or more of herbicidal effect and crop phytotoxicity) | 5 (90% or more of herbicidal effect and crop phytotoxicity) | 5 (90% or more of herbicidal effect and crop phytotoxicity) | 5 (90% or more of herbicidal effect and crop phytotoxicity) | 5 (90% or more of herbicidal effect and crop phytotoxicity) |  |  |  |  | 5 (90% or more of herbicidal effect and crop phytotoxicity) | 5 (90% or more of herbicidal effect and crop phytotoxicity) | 5 (90% or more of herbicidal effect and crop phytotoxicity) | 5 (90% or more of herbicidal effect and crop phytotoxicity)
